From patent publication US6503749B2 (Aventis Pharma S.A., priority 1998, dated 2003)

The compounds below were run against T1, APAT (acetyl-coenzyme A pregnenolone acetyltransferase) (Saccharomyces cerevisiae, UniProt P53296) (assay: Test of APAT enzyme activity (semi-purified APAT; substrate specificity and inhibition)). Settings: 30 μM of each steroid tested and 100 μM of [3H]acetyl-CoA; semi-purified APAT.
T1 construct: the semi-purified APAT transfers the acetate on 3β-ol, delta^4 or delta^5-steroids; endogenous in cells; host or cells: S. cerevisiae strain TGY73.4; endogenous enzyme purified in house from cell lysate (ZnCl2 precipitation, DEAE-Sephacel, Phenyl-Sepharose, Q-Sepharose, cholate-Sepharose)
Assay type: biochemical, S. cerevisiae
Description: The pregnenolone is added in solution in 2 μl of tyloxapol (Sigma)/ethanol mixture (1:1) in a potassium phosphate buffer (20 mM) at pH 7.0. After incubation for 15 minutes at 30° C., the reaction is stopped by adding 2 ml of dichloromethane.
The steroids are extracted with dichloromethane, then separated by reversed-phase high-performance liquid chromatography (hereinafter: RP-HPLC) in isocratic elution conditions with acetonitrile in an Ultrasphere ODS column (Beckman) at 45° C. on an HP 1090 chromatograph (Hewlett-Packard) connected to a FLO-One 500 radiodetector (Packard) which permits measurement of the amount of pregnenolone [^3H]acetate formed.
One APAT unit is defined as the quantity of enzyme that produces 1 nmol of pregnenolone acetate per minute at 30° C., in the conditions described above.

T1 sequence (P53296 whole entry): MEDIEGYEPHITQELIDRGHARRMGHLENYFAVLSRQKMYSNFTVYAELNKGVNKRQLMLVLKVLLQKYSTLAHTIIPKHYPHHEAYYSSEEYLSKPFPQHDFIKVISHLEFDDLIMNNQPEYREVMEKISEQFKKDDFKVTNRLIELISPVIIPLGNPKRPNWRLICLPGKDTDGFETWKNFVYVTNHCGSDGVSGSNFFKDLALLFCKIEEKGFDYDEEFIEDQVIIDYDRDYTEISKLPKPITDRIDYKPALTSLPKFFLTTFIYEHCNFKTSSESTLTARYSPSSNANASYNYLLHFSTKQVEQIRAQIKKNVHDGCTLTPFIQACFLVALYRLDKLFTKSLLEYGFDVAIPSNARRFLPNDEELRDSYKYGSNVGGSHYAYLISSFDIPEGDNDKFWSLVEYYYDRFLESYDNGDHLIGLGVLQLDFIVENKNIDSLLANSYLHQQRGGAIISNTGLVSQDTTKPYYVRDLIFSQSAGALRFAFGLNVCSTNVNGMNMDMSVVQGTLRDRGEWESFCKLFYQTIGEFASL

Structure (SMILES) | Relative activity (%), Substrate a)
CC(=O)[C@H]1CC[C@H]2[C@@H]3CCC4=C[C@@H](O)CC[C@]4(C)[C@H]3CC[C@]12C [4-pregnen-3βol-20-one] | 70%
CC(=O)[C@H]1CC[C@H]2[C@@H]3CC[C@@H]4C[C@@H](O)CC[C@]4(C)[C@H]3CC[C@]12C [5β-pregnan-3βol-20-one] | 1.8%
CC(=O)[C@@]1(O)CC[C@H]2[C@@H]3CC=C4C[C@@H](O)CC[C@]4(C)[C@H]3CC[C@@]21C [17α-OH pregnenolone, 17α-hydroxypregnenolone] | 89%
C[C@]12CC[C@@H]3c4ccc(O)cc4CC[C@H]3[C@@H]1CC[C@@H]2O [17β-oestradiol] | 5%
C[C@]12CC[C@H](O)CC1=CC[C@@H]1[C@@H]2CC[C@]2(C)C(=O)CC[C@@H]12 [DHEA, dehydroepiandrosterone] | 104%
CC(=O)[C@H]1CC[C@H]2[C@@H]3CC=C4C[C@@H](O)CC[C@]4(C)[C@H]3CC[C@]12C [Pregnenolone] | 100%
CC(C)CCC[C@@H](C)[C@H]1CC[C@H]2[C@@H]3CC=C4C[C@@H](O)CC[C@]4(C)[C@H]3CC[C@]12C [cholesterol] | 0.6%
CC(C)[C@@H](C)/C=C/[C@@H](C)[C@H]1CC[C@H]2C3=CC=C4C[C@@H](O)CC[C@]4(C)[C@H]3CC[C@]12C [ergosterol] | 0.4%
C[C@]12CC[C@@H]3c4ccc(O)cc4CC[C@H]3[C@@H]1CCC2=O [oestrone] | 2.5%

Same assay, conditions: 100 μM of each acyl donor and 30 μM of [3H]pregnenolone; semi-purified APAT

Structure (SMILES) | Relative activity (%), Substrate b)
CCCC(=O)SCCNC(=O)CCNC(=O)[C@H](O)C(C)(C)COP(=O)(O)OP(=O)(O)OC[C@H]1O[C@@H](n2cnc3c(N)ncnc32)[C@H](O)[C@@H]1OP(=O)(O)O [butyryl-CoA] | 16%
CCCCCC(=O)SCCNC(=O)CCNC(=O)[C@H](O)C(C)(C)COP(=O)(O)OP(=O)(O)OC[C@H]1O[C@@H](n2cnc3c(N)ncnc32)[C@H](O)[C@@H]1OP(=O)(O)O [hexanoyl-CoA] | 18%
CCCCCCCC/C=C\CCCCCCCC(=O)SCCNC(=O)CCNC(=O)[C@H](O)C(C)(C)COP(=O)(O)OP(=O)(O)OC[C@H]1O[C@@H](n2cnc3c(N)ncnc32)[C@H](O)[C@@H]1OP(=O)(O)O [oleoyl-CoA] | not detected
CCC(=O)SCCNC(=O)CCNC(=O)[C@H](O)C(C)(C)COP(=O)(O)OP(=O)(O)OC[C@H]1O[C@@H](n2cnc3c(N)ncnc32)[C@H](O)[C@@H]1OP(=O)(O)O [propionyl-CoA] | 33%

Same assay, conditions: reagents of sulfhydryl groups

Structure (SMILES) | Inhibition of APAT activity
O=C(O)c1cc(SSc2ccc([N+](=O)[O-])c(C(=O)O)c2)ccc1[N+](=O)[O-] [DTNB] | strongly inhibited
CCN1C(=O)C=CC1=O [NEM] | strongly inhibited

Same assay, conditions: zinc chloride 1 mM

Structure (SMILES) | Inhibition of APAT activity
[Cl-].[Cl-].[Zn+2] [zinc chloride] | complete
